Structures are written as SMILES.

Among the data in US8148391B2 (Cephalon, Inc., priority 2006, dated 2012) are IC50 values, retold here.

For test [1], the target named is T1, c-Met (cytoplasmic domain) (Homo sapiens, UniProt P08581).
T1 construct: 10 ng/mL c-Met (cytoplasmic domain, Invitrogen Corporation #PV3143); purchased Invitrogen Corporation PV3143
The test can be described thus: c-Met Kinase Assay (same methods as for ALK, with modifications). Format: biochemical. The settings on record: c-Met kinase inhibition, 1 μM ATP; read-out: cMet Activity. In outline:
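This plate-based kinase format uses immobilized phospholipase C-γ as substrate, phosphorylated by c-Met cytoplasmic domain (10 ng/mL) at 37° C for 15 minutes.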

In test [2] the target is T2, baculovirus-expressed ALK (Homo sapiens, UniProt Q9UM73).
T2 construct: host or cells: baculovirus expression system
T2 sequence (Q9UM73 19-1620): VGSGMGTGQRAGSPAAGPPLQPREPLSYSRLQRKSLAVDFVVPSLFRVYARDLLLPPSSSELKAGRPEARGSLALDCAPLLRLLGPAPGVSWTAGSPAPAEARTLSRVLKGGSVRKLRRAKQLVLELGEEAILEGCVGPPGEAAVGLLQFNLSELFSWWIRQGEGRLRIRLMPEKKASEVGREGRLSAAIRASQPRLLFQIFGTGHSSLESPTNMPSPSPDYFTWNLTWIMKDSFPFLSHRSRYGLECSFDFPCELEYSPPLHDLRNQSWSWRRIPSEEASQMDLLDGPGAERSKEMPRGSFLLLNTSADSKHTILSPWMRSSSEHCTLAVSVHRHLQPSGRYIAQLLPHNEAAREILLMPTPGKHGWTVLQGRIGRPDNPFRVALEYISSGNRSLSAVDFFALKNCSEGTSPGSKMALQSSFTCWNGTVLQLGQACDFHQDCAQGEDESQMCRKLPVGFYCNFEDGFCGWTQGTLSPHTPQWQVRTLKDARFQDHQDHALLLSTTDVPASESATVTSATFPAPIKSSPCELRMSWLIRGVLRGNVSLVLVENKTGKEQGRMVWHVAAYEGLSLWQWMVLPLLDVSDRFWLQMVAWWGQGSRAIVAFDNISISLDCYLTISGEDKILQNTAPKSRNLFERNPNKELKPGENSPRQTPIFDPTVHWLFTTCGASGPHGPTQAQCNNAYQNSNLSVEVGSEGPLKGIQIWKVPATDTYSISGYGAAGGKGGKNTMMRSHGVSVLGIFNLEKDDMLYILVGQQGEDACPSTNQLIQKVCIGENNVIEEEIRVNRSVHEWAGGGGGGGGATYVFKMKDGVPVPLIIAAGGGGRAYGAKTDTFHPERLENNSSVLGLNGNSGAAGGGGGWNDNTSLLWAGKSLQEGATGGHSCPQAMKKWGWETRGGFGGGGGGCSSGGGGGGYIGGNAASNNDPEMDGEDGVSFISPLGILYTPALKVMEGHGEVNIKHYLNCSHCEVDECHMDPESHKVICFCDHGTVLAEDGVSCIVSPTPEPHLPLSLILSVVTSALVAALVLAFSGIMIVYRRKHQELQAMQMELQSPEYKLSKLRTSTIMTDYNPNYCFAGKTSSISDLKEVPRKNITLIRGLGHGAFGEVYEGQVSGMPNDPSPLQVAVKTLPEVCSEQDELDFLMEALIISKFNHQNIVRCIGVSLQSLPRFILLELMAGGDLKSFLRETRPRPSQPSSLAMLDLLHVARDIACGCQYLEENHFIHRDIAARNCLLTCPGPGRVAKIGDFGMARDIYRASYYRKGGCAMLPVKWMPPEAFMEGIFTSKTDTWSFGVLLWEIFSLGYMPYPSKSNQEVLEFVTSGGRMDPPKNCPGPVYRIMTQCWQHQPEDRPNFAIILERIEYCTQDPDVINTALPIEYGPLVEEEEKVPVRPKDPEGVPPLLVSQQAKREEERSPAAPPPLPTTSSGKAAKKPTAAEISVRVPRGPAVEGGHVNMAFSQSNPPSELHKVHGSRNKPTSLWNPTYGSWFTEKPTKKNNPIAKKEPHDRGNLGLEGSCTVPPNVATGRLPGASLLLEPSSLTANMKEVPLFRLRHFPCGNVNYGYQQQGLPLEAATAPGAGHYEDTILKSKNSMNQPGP
The test can be described thus: ALK Kinase Assay (ELISA-type, time-resolved fluorescence). The format is biochemical. The settings on record: ALK kinase inhibition, 1 μM ATP; read-out: ALK Activity. In outline: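 Substrate coating: phospholipase C-γ, 10 μg/mL in TBS. Kinase step: 30 ng/ml ALK, 15 min, 37° C. Detection and analysis: Eu-N1 PT66 antibody, with IC50 fitted as a sigmoidal variable-slope dose-response curve.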
A general note: ELISA stands for enzyme-linked immunosorbent assay.

T1 sequence (P08581 956-1390 limits assumed): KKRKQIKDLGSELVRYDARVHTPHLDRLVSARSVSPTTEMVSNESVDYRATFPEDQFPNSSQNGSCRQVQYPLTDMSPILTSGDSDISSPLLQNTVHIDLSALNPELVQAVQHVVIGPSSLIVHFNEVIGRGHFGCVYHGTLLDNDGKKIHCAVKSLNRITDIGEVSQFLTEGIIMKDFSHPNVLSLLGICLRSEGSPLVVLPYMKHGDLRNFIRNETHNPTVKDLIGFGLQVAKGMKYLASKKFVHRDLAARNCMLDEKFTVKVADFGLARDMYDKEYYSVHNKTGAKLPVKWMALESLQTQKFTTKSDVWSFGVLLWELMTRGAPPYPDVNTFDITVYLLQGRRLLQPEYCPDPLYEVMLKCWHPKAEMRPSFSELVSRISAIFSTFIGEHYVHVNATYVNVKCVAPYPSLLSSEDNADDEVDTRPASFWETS

For `CNC(=O)c1cnn(C)c1Nc1nc(Nc2ccc3c(c2)CC(=O)N(C)CC3)ncc1Cl` [Example 1821, 5-[5-Chloro-2-(3-methyl-4-oxo-2,3,4,5-tetrahydro-1H-benzo[d]azepin-7-ylamino)-pyrimidin-4-ylamino]-1-methyl-1H-pyrazole-4-carboxylic acid methylamide], the IC50 in test [1] and in test [2] was 100 to 1000 nM in each case.

Take `CC(C)[C@@H](Nc1nc(Nc2ccc3c(c2)CC(=O)N(C)CC3)ncc1Cl)C(N)=O` [Example 1822, (R)-2-[5-Chloro-2-(3-methyl-4-oxo-2,3,4,5-tetrahydro-1H-benzo[d]azepin-7-ylamino)-pyrimidin-4-ylamino]-3-methyl-butyramide]: the IC50 in test [1] and in test [2] was 1000 to 10000 nM throughout.

For the molecule `CC(C)[C@H](Nc1nc(Nc2ccc3c(c2)CC(=O)N(C)CC3)ncc1Cl)C(N)=O` [Example 1823, (S)-2-[5-Chloro-2-(3-methyl-4-oxo-2,3,4,5-tetrahydro-1H-benzo[d]azepin-7-ylamino)-pyrimidin-4-ylamino]-3-methyl-butyramide], the IC50 was over 10000 nM in test [1] and 1000 to 10000 nM in test [2].

Consider `CNC(=O)c1ccccc1N(C)c1nc(Nc2ccc3c(c2)CC(=O)N(C)CC3)ncc1F` [Example 1824, 2-{[5-Fluoro-2-(3-methyl-4-oxo-2,3,4,5-tetrahydro-1H-benzo[d]azepin-7-ylamino)-pyrimidin-4-yl]-methyl-amino}-N-methyl-benzamide], for which the IC50 in test [1] was over 10000 nM; in test [2], 1000 to 10000 nM.

Consider `CN1CCc2ccc(Nc3ncc(Cl)c(Nc4ccccc4-c4cc[nH]n4)n3)cc2CC1=O` [Example 1825, 8-{5-Chloro-4-[2-(1H-pyrazol-3-yl)-phenylamino]-pyrimidin-2-ylamino}-3-methyl-1,3,4,5-tetrahydro-benzo[d]azepin-2-one], for which the IC50 in test [1] and in test [2] was over 10000 nM each time.

`CNC(=O)c1cccc(F)c1Nc1nc(Nc2ccc3c(c2)CCC(=O)NC3(C)C)ncc1Cl` [Example 1826, 2-(5-Chloro-2-(1,1-dimethyl-3-oxo-2,3,4,5-tetrahydro-1H-benzo[c]azepin-7-ylamino)pyrimidin-4-ylamino)-3-fluoro-N-methylbenzamide]: the IC50 in test [1] and in test [2] was 1000 to 10000 nM each time.

On to `CNC(=O)c1ccccc1Nc1nc(Nc2ccc3c(c2)CCC(=O)NC3(C)C)ncc1Cl` [Example 1827, 2-(5-Chloro-2-(1,1-dimethyl-3-oxo-2,3,4,5-tetrahydro-1H-benzo[c]azepin-7-ylamino)pyrimidin-4-ylamino)-N-methylbenzamide], for which the IC50 in test [1] and in test [2] was under 100 nM throughout.

In the case of `CNC(=O)c1cccc(Cl)c1Nc1nc(Nc2ccc3c(c2)CCC(=O)NC3(C)C)ncc1Cl` [Example 1828, 3-Chloro-2-(5-chloro-2-(1,1-dimethyl-3-oxo-2,3,4,5-tetrahydro-1H-benzo[c]azepin-7-ylamino)pyrimidin-4-ylamino)-N-methylbenzamide], the IC50 in test [1] and in test [2] was under 100 nM in each case.

Consider `CNC(=O)c1scc(C)c1Nc1nc(Nc2ccc3c(c2)CCC(=O)NC3(C)C)ncc1Cl` [Example 1829], for which the IC50 in test [1] was under 100 nM; in test [2], 1000 to 10000 nM.

On to `CNC(=O)c1cccc(C)c1Nc1nc(Nc2ccc3c(c2)CCC(=O)NC3(C)C)ncc1Cl` [Example 1830, 2-(5-Chloro-2-(1,1-dimethyl-3-oxo-2,3,4,5-tetrahydro-1H-benzo[c]azepin-7-ylamino)pyrimidin-4-ylamino)-N,3-dimethylbenzamide], for which the IC50 was under 100 nM in test [1] and 1000 to 10000 nM in test [2].

Consider `CNC(=O)c1cccc(F)c1Nc1nc(Nc2ccc3c(c2)C(C)(C)NC(=O)CC3)ncc1Cl` [Example 1831, 2-(5-Chloro-2-(1,1-dimethyl-3-oxo-2,3,4,5-tetrahydro-1H-benzo[c]azepin-8-ylamino)pyrimidin-4-ylamino)-3-fluoro-N-methylbenzamide], for which the IC50 in test [1] is under 100 nM; in test [2], 1000 to 10000 nM.

Take `CC1(C)NC(=O)CCc2ccc(Nc3ncc(Cl)c(NC4C5C=CC(C5)C4C(N)=O)n3)cc21` (stereo not shown) [Example 1832, 3-(5-Chloro-2-(1,1-dimethyl-3-oxo-2,3,4,5-tetrahydro-1H-benzo[c]azepin-8-ylamino)pyrimidin-4-ylamino)bicyclo[2.2.1]hept-5-ene-2-carboxamide]: the IC50 in test [1] and in test [2] was under 100 nM in each case.

In the case of `CNC(=O)c1ccccc1Nc1nc(Nc2ccc3c(c2)C(C)(C)NC(=O)CC3)ncc1Cl` [Example 1833, 2-(5-Chloro-2-(1,1-dimethyl-3-oxo-2,3,4,5-tetrahydro-1H-benzo[c]azepin-8-ylamino)pyrimidin-4-ylamino)-N-methylbenzamide], the IC50 in test [1] is 100 to 1000 nM; in test [2], under 100 nM.

As for `CNC(=O)c1cccc(Cl)c1Nc1nc(Nc2ccc3c(c2)C(C)(C)NC(=O)CC3)ncc1Cl` [Example 1834, 3-Chloro-2-(5-chloro-2-(1,1-dimethyl-3-oxo-2,3,4,5-tetrahydro-1H-benzo[c]azepin-8-ylamino)pyrimidin-4-ylamino)-N-methylbenzamide], the IC50 in test [1] and in test [2] was under 100 nM in each case.

Take `CNC(=O)c1scc(C)c1Nc1nc(Nc2ccc3c(c2)C(C)(C)NC(=O)CC3)ncc1Cl` [Example 1835, 3-(5-Chloro-2-(1,1-dimethyl-3-oxo-2,3,4,5-tetrahydro-1H-benzo[c]azepin-8-ylamino)pyrimidin-4-ylamino)-N,4-dimethylthiophene-2-carboxamide]: the IC50 was under 100 nM in test [1] and 100 to 1000 nM in test [2].

Regarding `CNC(=O)c1ccccc1Nc1nc(Nc2ccc3c(c2)-n2ccnc2CCC3)ncc1Cl` [Example 1836, 2-[5-Chloro-2-(5,6-dihydro-4H-3,10b-diaza-benzo[e]azulen-9-ylamino)-pyrimidin-4-ylamino]-N-methyl-benzamide], the results for the IC50 in test [1] and in test [2] were under 100 nM and 100 to 1000 nM, respectively.

As for `CNC(=O)c1cccc(F)c1Nc1nc(Nc2ccc3c(c2)-n2ccnc2CCC3)ncc1Cl` [Example 1837, 2-[5-Chloro-2-(5,6-dihydro-4H-3,10b-diaza-benzo[e]azulen-9-ylamino)-pyrimidin-4-ylamino]-3-fluoro-N-methyl-benzamide], the IC50 in test [1] and in test [2] was under 100 nM each time.

Turning to `CNC(=O)c1scc(C)c1Nc1nc(Nc2ccc3c(c2)-n2ccnc2CCC3)ncc1Cl` [Example 1838, 3-[5-Chloro-2-(5,6-dihydro-4H-3,10b-diaza-benzo[e]azulen-9-ylamino)-pyrimidin-4-ylamino]-4-methyl-thiophene-2-carboxylic acid methylamide], the figures for the IC50 in test [1] and in test [2] were under 100 nM and 100 to 1000 nM, respectively.

In the case of `CNC(=O)c1cccc(Cl)c1Nc1nc(Nc2ccc3c(c2)-n2ccnc2CCC3)ncc1Cl` [Example 1839, 2-[5-Chloro-2-(5,6-dihydro-4H-3,10b-diaza-benzo[e]azulen-9-ylamino)-pyrimidin-4-ylamino]-3-chloro-N-methyl-benzamide], the figures for the IC50 in test [1] and in test [2] were 100 to 1000 nM and 1000 to 10000 nM, respectively.

Regarding `CNC(=O)c1sccc1Nc1nc(Nc2ccc3c(c2)-n2ccnc2CCC3)ncc1Cl` [Example 1840, 3-[5-Chloro-2-(5,6-dihydro-4H-3,10b-diaza-benzo[e]azulen-9-ylamino)-pyrimidin-4-ylamino]-thiophene-2-carboxylic acid methylamide], the IC50 in test [1] and in test [2] was 100 to 1000 nM in each case.
